Data taken from patent publication US20240415804A1, “METHOD OF TREATING PANCREATIC CANCER” (University of South Florida, priority 2022, published 2024).

Assays:
Conditions in all cases: miR-155 inhibitor 100 nM, 24 h, vs scrambled miRNA
miR-155 [1] = test: miR-155 gene expression by RT-qPCR in MiaPaCa-2 cells; format: cell-based, human
Protocol: (§1) MiR-155 is known to be overexpressed in different cancers, including PC^21, 23. The inventors first assessed whether apigenin could modulate the expression of miR-155 in PC cells. Murine PC cell lines Panc02 and UN-KC-6141 as well as the human PC cell line MiaPaCa-2 were treated with API (40 μM) or DMSO vehicle for 24 h and the expression of miR-155 was examined using RT-qPCR assay. […] Since API is known to inhibit the growth of cancer cells, including PC cells^39-43, 47-50, the same PC cell lines were treated with API (40 μM) or DMSO (vehicle) for 24 h and examined cell viability using MTT assay. […] Moreover, Panc02 and UN-KC-6141 cells were then treated with API at a dose dependent concentration (10, 20, 30, 40, 50 μM) and detected apoptosis using flow cytometry (Annexin V and PI).
(§2) miR-155 is implicated in the development of pancreatic tumors from pancreatic intraepithelial neoplasia (PanIN) lesions, and is overexpressed in PC^23. The inventors examined whether the depletion of miR-155 modulated PC viability. Murine and human PC cell lines were transfected with miR-155 inhibitor (i.e., MMU-MIR-155-5P/HSA-MIR-155-5P) and scrambled miRNA at a concentration of 100 nM for 24 h and cell viability determined using an MTT assay. The expression of miR-155 was examined using an RT-qPCR assay as well. […]

MiaPaCa-2 cells = test: MTT cell viability assay, MiaPaCa-2; format: cell-based, human
Protocol: (§3) The methyl thiazol tetrazolium (MTT) assay was performed as described previously^58. Briefly, MiaPaCa-2, Panc02 and UN-KC-6141 cells were seeded in 96-well plates at a density of 3000 cells/well and allowed to attach overnight. PC cells were then treated with API (40 μM) or DMSO (1%) as vehicle control for 24 h at 37° C. in 5% CO2 incubator. After 24 h, media was replaced with 20 μL of MTT (1 mg/mL) (Sigma-Aldrich) and incubated for 3 h at 37° C. in 5% CO2. MTT was replaced with DMSO, and absorbance was read at 570 nm.
(§4) MiaPaCa-2, Panc02 and UN-KC-6141 cells (2×10^5) were grown in 2 mL of growth medium in a 6-well tissue culture plate for 18-24 h until 60-80% confluency. The following solutions were prepared: Solution A) For each transfection, diluted 1 μL of miRNA-155 inhibitors (1 μM) (Table 2) or scrambled negative control miRNA (1 μM) (Qiagen, Germantown, MD, USA) into 50 μL Opti-MEM Transfection Medium (Invitrogen, Waltham, MA, USA). Solution B) For each transfection, diluted 3 μL of Hi-Perfect Transfection Reagent into 50 μL Opti-MEM Transfection Medium. Solution A was added directly to Solution B, mixed gently and the mixture incubated for 10-15 min at room temperature. […]

miR-155 [2] = test: miR-155 gene expression by RT-qPCR in Panc02 cells; format: cell-based, mouse
Protocol: as §1, §2

miR-155 [3] = test: miR-155 gene expression by RT-qPCR in UN-KC-6141 cells; format: cell-based, mouse
Protocol: as §1, §2

Panc02 cells = test: MTT cell viability assay, Panc02; format: cell-based, mouse
Protocol: as §3, §4

UN-KC-6141 cells = test: MTT cell viability assay, UN-KC-6141; format: cell-based, mouse
Protocol: as §3, §4

| Substance | miR-155 gene expression (miR-155 [1]) | cell viability (MTT) (MiaPaCa-2 cells) | miR-155 gene expression (miR-155 [2]) | miR-155 gene expression (miR-155 [3]) | cell viability (MTT) (Panc02 cells) | cell viability (MTT) (UN-KC-6141 cells) |
| --- | --- | --- | --- | --- | --- | --- |
| HSA-MIR-155-5P: Qiagen miRCURY LNA miRNA inhibitor (human), sequence 5′-3′ CCTATCACGATTAGCATT, SEQ ID NO: 2 (LNA-modified commercial inhibitor, pattern not given here; listed 3' to 5'; listed as Homo sapiens) [reference compound] | significantly depleted | suppressed |  |  |  |  |
| MMU-MIR-155-5P: Qiagen miRCURY LNA miRNA inhibitor (mouse), sequence 5′-3′ CCCCTATCACAATTACCATT, SEQ ID NO: 1 (CCCCTATCACAATTAGCATT; LNA-modified commercial inhibitor, pattern not given here; listed 3' to 5'; listed as Mus musculus) [reference compound] |  |  | significantly depleted | significantly depleted | suppressed | suppressed |
